Measurements from ChEMBL document CHEMBL2434921, “New synthetic aliphatic sulfonamido-quaternary ammonium salts as anticancer chemotherapeutic agents” (2013).
Calls of active or inactive are those of the source. The calls are words filed in the database; no cut-off is given here.

How the values were obtained:
NCI-H23 [1] = experiment: Growth inhibition of human NCI-H23 cells after 48 hrs by SRB assay; assay type: functional; details: NCI-H23, 48 h
HCT-15 [2] = experiment: Growth inhibition of human HCT15 cells after 48 hrs by SRB assay; assay type: functional; details: HCT-15, 48 h
[3] = target: Rho-related GTP-binding protein RhoB (Homo sapiens) (UniProt P62745); experiment: Transactivation of RhoB (unknown origin) transfected in human HeLa cells at 5 uM measured over 10 secs by dual luciferase reporter gene assay; assay type: cell-based
Sequence of Rho-related GTP-binding protein RhoB (Homo sapiens) (P62745 whole entry): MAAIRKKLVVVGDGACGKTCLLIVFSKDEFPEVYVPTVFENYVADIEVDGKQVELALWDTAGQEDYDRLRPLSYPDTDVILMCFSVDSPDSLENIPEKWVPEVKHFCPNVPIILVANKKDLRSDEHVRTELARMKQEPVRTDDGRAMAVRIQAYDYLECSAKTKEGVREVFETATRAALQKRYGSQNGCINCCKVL

NUGC-3 [4] = experiment: Growth inhibition of human NUGC3 cells after 48 hrs by SRB assay; assay type: functional; details: NUGC-3, 48 h
ACHN [5] = experiment: Growth inhibition of human ACHN cells after 48 hrs by SRB assay; assay type: functional
MDA-MB-231 [6] = experiment: Growth inhibition of human MDA-MB-231 cells after 48 hrs by SRB assay; assay type: functional; details: MDA-MB-231, 48 h
PC-3 [7] = experiment: Growth inhibition of human PC3 cells after 48 hrs by SRB assay; assay type: functional; details: PC-3, 48 h
PC-3 [8] = experiment: Growth of human PC3 cells at 10 uM after 48 hrs by SRB assay; details: PC-3, 48 h
NUGC-3 [9] = experiment: Growth of human NUGC3 cells at 1 uM after 48 hrs by SRB assay; details: NUGC-3, 48 h
ACHN [10] = experiment: Growth of human ACHN cells at 10 uM after 48 hrs by SRB assay
HCT-15 [11] = experiment: Growth of human HCT15 cells at 3 uM after 48 hrs by SRB assay; details: HCT-15, 48 h
ACHN [12] = experiment: Growth of human ACHN cells at 0.1 uM after 48 hrs by SRB assay
ACHN [13] = experiment: Growth of human ACHN cells at 0.3 uM after 48 hrs by SRB assay
NUGC-3 [14] = experiment: Growth of human NUGC3 cells at 0.1 uM after 48 hrs by SRB assay; details: NUGC-3, 48 h
NUGC-3 [15] = experiment: Growth of human NUGC3 cells at 0.3 uM after 48 hrs by SRB assay; details: NUGC-3, 48 h
HCT-15 [16] = experiment: Growth of human HCT15 cells at 0.3 uM after 48 hrs by SRB assay; details: HCT-15, 48 h
NCI-H23 [17] = experiment: Growth of human NCI-H23 cells at 10 uM after 48 hrs by SRB assay; details: NCI-H23, 48 h
NCI-H23 [18] = experiment: Growth of human NCI-H23 cells at 0.3 uM after 48 hrs by SRB assay; details: NCI-H23, 48 h
MDA-MB-231 [19] = experiment: Growth of human MDA-MB-231 cells at 1 uM after 48 hrs by SRB assay; details: MDA-MB-231, 48 h
MDA-MB-231 [20] = experiment: Growth of human MDA-MB-231 cells at 10 uM after 48 hrs by SRB assay; details: MDA-MB-231, 48 h
MDA-MB-231 [21] = experiment: Growth of human MDA-MB-231 cells at 0.1 uM after 48 hrs by SRB assay; details: MDA-MB-231, 48 h
MDA-MB-231 [22] = experiment: Growth of human MDA-MB-231 cells at 3 uM after 48 hrs by SRB assay; values are per cent of control; details: MDA-MB-231, 48 h
PC-3 [23] = experiment: Growth inhibition of human PC3 cells at 1 uM after 48 hrs by SRB assay; values are per cent of control; details: PC-3, 48 h
PC-3 [24] = experiment: Growth inhibition of human PC3 cells at 3 uM after 48 hrs by SRB assay; values are per cent of control; details: PC-3, 48 h
ACHN [25] = experiment: Growth inhibition of human ACHN cells at 3 uM after 48 hrs by SRB assay; values are per cent of control
ACHN [26] = experiment: Growth inhibition of human ACHN cells at 1 uM after 48 hrs by SRB assay; values are per cent of control
NUGC-3 [27] = experiment: Growth inhibition of human NUGC3 cells at 3 uM after 48 hrs by SRB assay; values are per cent of control; details: NUGC-3, 48 h
PC-3 [28] = experiment: Growth inhibition of human PC3 cells at 0.1 uM after 48 hrs by SRB assay; values are per cent of control; details: PC-3, 48 h
PC-3 [29] = experiment: Growth inhibition of human PC3 cells at 0.3 uM after 48 hrs by SRB assay; values are per cent of control; details: PC-3, 48 h
HCT-15 [30] = experiment: Growth inhibition of human HCT15 cells at 1 uM after 48 hrs by SRB assay; values are per cent of control; details: HCT-15, 48 h
NUGC-3 [31] = experiment: Growth inhibition of human NUGC3 cells at 10 uM after 48 hrs by SRB assay; values are per cent of control; details: NUGC-3, 48 h
HCT-15 [32] = experiment: Growth inhibition of human HCT15 cells at 10 uM after 48 hrs by SRB assay; values are per cent of control; details: HCT-15, 48 h
NCI-H23 [33] = experiment: Growth inhibition of human NCI-H23 cells at 1 uM after 48 hrs by SRB assay; values are per cent of control; details: NCI-H23, 48 h
NCI-H23 [34] = experiment: Growth inhibition of human NCI-H23 cells at 3 uM after 48 hrs by SRB assay; values are per cent of control; details: NCI-H23, 48 h
HCT-15 [35] = experiment: Growth inhibition of human HCT15 cells at 0.1 uM after 48 hrs by SRB assay; values are per cent of control; details: HCT-15, 48 h
NCI-H23 [36] = experiment: Growth inhibition of human NCI-H23 cells at 0.1 uM after 48 hrs by SRB assay; values are per cent of control; details: NCI-H23, 48 h
MDA-MB-231 [37] = experiment: Growth inhibition of human MDA-MB-231 cells at 0.3 uM after 48 hrs by SRB assay; values are per cent of control; details: MDA-MB-231, 48 h

GI50 (NCI-H23 [1]) [nM] | GI50 (HCT-15 [2]) [nM] | Activity [3] | GI50 (ACHN [5]) [nM] | GI50 (MDA-MB-231 [6]) [nM] | GI50 (PC-3 [7]) [nM] | Structure (SMILES) | GI50 (NUGC-3 [4]) [nM] | growth, % of control at 10 µM (PC-3 [8]) [%] | growth, % of control at 1 µM (NUGC-3 [9]) [%] | growth, % of control at 10 µM (ACHN [10]) [%] | growth, % of control at 3 µM (HCT-15 [11]) [%] | growth, % of control at 0.1 µM (ACHN [12]) [%] | growth, % of control at 0.3 µM (ACHN [13]) [%] | growth, % of control at 0.1 µM (NUGC-3 [14]) [%] | growth, % of control at 0.3 µM (NUGC-3 [15]) [%] | growth, % of control at 0.3 µM (HCT-15 [16]) [%] | growth, % of control at 10 µM (NCI-H23 [17]) [%] | growth, % of control at 0.3 µM (NCI-H23 [18]) [%] | growth, % of control at 1 µM (MDA-MB-231 [19]) [%] | growth, % of control at 10 µM (MDA-MB-231 [20]) [%] | further results
330 | 1140 | Active | 1640 | 1170 | 300 | CCCCCCCCCCCCCCS(=O)(=O)NCCC[N+](C)(C)CC | 290 | -11.5 | 34 | 24.5 | 36.9 | 91.4 | 91.4 | 85.1 | 69 | 94.5 | -45.5 | 88.7 | 66.2 | 23.9 | growth, % of control at 0.1 µM (MDA-MB-231 [21]): 83.1%; growth, % of control at 3 µM (MDA-MB-231 [22]): 43.8%; growth, % of control at 1 µM (PC-3 [23]): 33.4%; growth, % of control at 3 µM (PC-3 [24]): 6.9%; growth, % of control at 3 µM (ACHN [25]): 42.5%; growth, % of control at 1 µM (ACHN [26]): 92.5%; growth, % of control at 3 µM (NUGC-3 [27]): 11.2%; growth, % of control at 0.1 µM (PC-3 [28]): 89.8%; growth, % of control at 0.3 µM (PC-3 [29]): 72.7%; growth, % of control at 1 µM (HCT-15 [30]): 68.2%; growth, % of control at 10 µM (NUGC-3 [31]): -4.7%; growth, % of control at 10 µM (HCT-15 [32]): 23.4%; growth, % of control at 1 µM (NCI-H23 [33]): 24%; growth, % of control at 3 µM (NCI-H23 [34]): -10.6%; growth, % of control at 0.1 µM (HCT-15 [35]): 97%; growth, % of control at 0.1 µM (NCI-H23 [36]): 93.3%; growth, % of control at 0.3 µM (MDA-MB-231 [37]): 86.4%
620 | 1490 | Active | 1290 | 1120 | 560 | CCCCCCCCCCCCCCCCS(=O)(=O)N(C)CC[N+](C)(CC)CC | 390 | -21.6 | 30.2 | 5 | 42.7 | 90.4 | 89.5 | 93.6 | 88.1 | 100 | 0.4 | 90.5 | 68.4 | 15.6 | growth, % of control at 0.1 µM (MDA-MB-231 [21]): 98.5%; growth, % of control at 3 µM (MDA-MB-231 [22]): 35.7%; growth, % of control at 1 µM (PC-3 [23]): 50.7%; growth, % of control at 3 µM (PC-3 [24]): 8.6%; growth, % of control at 3 µM (ACHN [25]): 48.7%; growth, % of control at 1 µM (ACHN [26]): 72.7%; growth, % of control at 3 µM (NUGC-3 [27]): 9.2%; growth, % of control at 0.1 µM (PC-3 [28]): 100%; growth, % of control at 0.3 µM (PC-3 [29]): 92.8%; growth, % of control at 1 µM (HCT-15 [30]): 76.2%; growth, % of control at 10 µM (NUGC-3 [31]): 1.2%; growth, % of control at 10 µM (HCT-15 [32]): 21.1%; growth, % of control at 1 µM (NCI-H23 [33]): 51.3%; growth, % of control at 3 µM (NCI-H23 [34]): 22.5%; growth, % of control at 0.1 µM (HCT-15 [35]): 98.5%; growth, % of control at 0.1 µM (NCI-H23 [36]): 90.7%; growth, % of control at 0.3 µM (MDA-MB-231 [37]): 96.2%
